Values joined by “and” are separate entries in the source; they are usually repeats but may differ in a detail not shown here. Equal values may be shown once.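 Test compounds were applied to cells in 96-well plates for 48 hours at 5 doses. GI50: concentration for 50% inhibition of growth. TGI: total growth inhibition.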
Assays:
Experiment in all cases: inhibition of tumour cell growth, NCI panel, 48 h
[1] = test system: HOP-62 NSCLC
[2] = test system: HCT-116 colon
[3] = test system: HCC-2998 colon
[4] = test system: OVCAR-4 ovarian
[5] = test system: HT29 colon
[6] = test system: COLO 205 colon
[7] = test system: SNB-19 CNS
[8] = test system: HL-60(TB) leukemia
[9] = test system: M14 melanoma
[10] = test system: SF-268 CNS

Compound | GI50 [1] | TGI [1] | GI50 [2] | TGI [2] [µM] | GI50 [3] [µM] | TGI [3] [µM] | GI50 [4] [µM] | TGI [4] [µM] | GI50 [5] [µM] | TGI [5] [µM] | GI50 [6] | TGI [6] [µM] | GI50 [7] | TGI [7] | GI50 [8] | TGI [8] | GI50 [9] [µM] | TGI [9] [µM] | GI50 [10] | TGI [10]
CN1CCN(Cc2ccc(NC(=O)c3[nH]ncc3Nc3ccnc4ccsc34)cc2)CC1 | 2.82 µM | 14.2 µM | 1.51 µM | 11.7 | 2.75 | 10.1 | 2.32 | 7.47 | 2.04 | 33.8 | 1.42 µM | 8.32 | 2.81 µM | 20.2 µM | 2.49 µM | 5.85 µM | 3.69 | 16.9 | 3.22 µM | 11 µM
COc1cc(N)ccc1Nc1c2ccccc2nc2ccccc12 | 9.98 µM | 27.9 µM | 2.51 µM | 7.63 | 15.3 | 30.3 | 10.6 | > 45.6 | 3.29 | 11 | 5.55 µM | 18.4 | 15.9 µM | 38.1 µM | 5.49 µM | 18.5 µM | 16.5 | 36.2 | 14.2 µM | 35.3 µM
CCC(=O)Nc1ccc2c(c1)CN1C(=O)c3ccccc3C1=N2 | > 100 µM | > 100 µM | > 100 µM | > 100 | > 100 | > 100 | > 100 | > 100 | > 100 | > 100 | > 100 µM | > 100 | > 100 µM | > 100 µM | > 100 µM | > 100 µM | > 100 | > 100 | > 100 µM | > 100 µM
Cc1cc(Nc2nc(N3CCOCC3)nc3ccccc23)n[nH]1 | 6.22 µM | > 100 µM | 3.64 µM | 27 | 24.8 | > 100 | 7.26 | > 100 | 5.09 | 52.8 | 3.09 µM | 11.9 | 26 µM | > 100 µM | 5.5 µM | 50.1 µM | 7.14 | > 100 | 6.21 µM | 35.2 µM
Cc1ccc(-c2nc3nc(-c4ccc(Cl)cc4)nc(N4CCCNCC4)c3o2)cc1 | 1.76 µM | 3.64 µM | 1.53 µM | 2.94 | 1.89 | 3.54 | 1.84 | 3.39 | 1.93 | 3.94 | 2.08 µM | 4.26 | 1.7 µM | 3.12 µM | 1.4 µM | 3.25 µM | 1.75 | 3.34 | 1.92 µM | 3.97 µM
CC1=C([Se]CC(OC(=O)[C@@H](CSSC(C)(C)C)NC(=O)C(C)(C)C)C(=O)NCCCCCC(=O)OCc2ccccc2)C(=O)c2ccccc2C1=O (some centres undefined) | 1.01 µM | 3.03 µM | 1.53 µM | 3.68 | 2.2 | 4 | 1.58 | 2.97 | 2.69 | 7.34 | 1.8 µM | 3.47 | 1.09 µM | 2.56 µM | 2.51 µM | 5.98 µM | 2.05 | 4.04 | 1.91 µM | 3.51 µM
CC1=Cc2cc3[n-]c(cc4nc(cc5[n-]c(cc1n2)c(C)c5CCC(=O)O)C(CCC(=O)O)=C4C)cc3C.[Cu+2] | > 1 µM and 20.8 µM | > 1 µM and 59.1 µM | > 1 µM and 33.4 µM | > 100 | > 100 | > 100 | > 100 | > 100 | > 100 | > 100 | > 1 µM and 40.7 µM | > 100 | > 1 µM and 11.9 µM | > 1 µM and 32.9 µM | > 1 µM and 22.2 µM | > 1 µM and 51.2 µM | > 79.1 | > 100 | 10.8 µM and > 1 µM | 36.1 µM and > 1 µM
C=C1C(=O)O[C@H]2[C@H]1CC/C(COC(=O)NCCc1c[nH]c3ccccc13)=C\CC[C@@]1(C)O[C@@H]21 | 5.25 µM | 19.8 µM | 1.01 µM | 2.39 | 1.67 | 3.18 | 2.96 | 13.1 | 1.55 | 3.78 | 1.36 µM | 3.09 | 6.46 µM | 20.2 µM | 0.583 µM | 2.86 µM | 1.44 | 3.65 | 2.94 µM | 13.5 µM
COc1ccc2c(c1)/C(=C/c1c(-c3ccc(C)cc3)nc3sc(C)cn13)C(=O)N2 | 19.7 µM | > 100 µM | 4.71 µM | 18.7 | 13.4 | 43.7 | 14.2 | > 100 | 8.92 | > 100 | 19.8 µM | > 100 | 20.6 µM | > 100 µM | 4.85 µM | 30.8 µM | 13.2 | 59.1 | 11.1 µM | > 100 µM
NC1=NN(c2ccccc2)C(=O)C1C(=O)C(=O)Nc1cccc(C(F)(F)F)c1 (centres undefined) |  | > 100 µM |  | > 100 |  | > 100 |  | > 100 |  | > 100 |  | > 100 |  | > 100 µM |  | > 100 µM |  | > 100 |  | > 100 µM
COc1cc2c3c(n(CCCn4ccnc4)c(=O)c2cc1OC)-c1ccccc1C3=O | < 0.0162 µM | 0.141 µM | < 0.0135 µM | 0.153 | 0.0598 | 0.504 | 0.468 | 22.4 | < 0.0406 | 0.603 | 0.0979 µM |  | < 0.0285 µM | > 69 µM | < 0.01 µM | 0.102 µM | < 0.0171 | 0.116 | < 0.0423 µM | > 100 µM
O=C(CSc1nc2sc3c(c2c(=O)n1-c1ccccc1)CCCCC3)N/N=C/c1ccc(F)cc1 | 2.38 µM | 7.39 µM | 2.34 µM | 12 | 49.5 | > 100 | 0.671 | 2.46 | 2.4 | 7.04 | 1.58 µM | 3.64 | 3.45 µM | 13.2 µM | > 100 µM | > 100 µM | 5.72 | > 100 | 2.14 µM | 6.57 µM
C[C@]12CC[C@H]3[C@@H](CC=C4C[C@@H](O)CC[C@@]43C)[C@@H]1C/C(=C\c1cccc(OCCCn3ccnc3)c1)[C@@H]2O | 15.1 µM | 32.7 µM | 5.99 µM | 21.1 | 17.8 | 34.1 | 12.8 | 32.7 | 3.85 | 18.1 | 8.33 µM | 27 | 17.1 µM | 37.6 µM | 8.1 µM | 34.3 µM | 13.4 | 35.7 | 16.8 µM | 37.5 µM
CC1(C)CC2=NOS3=C2C(=NO3)C1c1ccccn1 (centres undefined) |  | > 100 µM |  | > 100 |  | > 100 |  | > 100 |  | > 100 |  | 80.5 |  | > 100 µM |  | 51.7 µM |  | > 100 |  | > 100 µM
CC(=O)[CH-]C(C)=O.CC(=O)[CH-]C(C)=O.CC(=O)[CH-]C(C)=O.[Cl-].[Hf+4] | > 100 µM | > 100 µM | > 100 µM | > 100 | > 100 | > 100 | > 100 | > 100 | > 100 | > 100 | > 100 µM | > 100 | > 100 µM | > 100 µM | > 100 µM | > 100 µM | > 100 | > 100 | > 100 µM | > 100 µM
CCOC(=O)CCc1c(C)c2ccc(O)cc2oc1=O |  | > 100 µM |  | > 100 |  | > 100 |  | > 100 |  | > 100 |  | > 100 |  | > 100 µM |  | > 100 µM |  | > 100 |  | > 100 µM
CC1CC(C)C(=O)C(C(=O)CC2CC(=O)NC2=O)C1 (centres undefined) |  | > 100 µM |  | > 100 |  | > 100 |  | > 100 |  | > 100 |  | > 100 |  | > 100 µM |  | > 100 µM |  | > 100 |  | > 100 µM
O=[N+]([O-])c1ccccc1/C=C/C=C1c2ccccc2-c2ccccc21 | > 100 µM | > 100 µM | > 100 µM | > 100 | > 100 | > 100 | > 100 | > 100 | > 100 | > 100 | > 100 µM | > 100 | > 100 µM | > 100 µM | > 100 µM | > 100 µM | > 100 | > 100 | > 100 µM | > 100 µM
O=C(Nc1ccc(N=Nc2ccccc2)cc1)Sc1ccccc1C(=O)O |  | > 100 µM |  | > 100 |  | > 100 |  | > 100 |  | > 100 |  | > 100 |  | > 100 µM |  | > 100 µM |  | > 100 |  | > 100 µM
O=C1C(Br)=C(c2ccccc2)C(c2ccccc2)=C1c1ccccc1 |  | 23 µM |  | 3.6 |  | 15.9 |  | 4.98 |  | 5.15 |  | 3.69 |  | 24.2 µM |  | 2.31 µM |  | 4.46 |  | 7.52 µM
OCC1OC(O)C(N=Cc2ccc3c(c2)OCO3)C(O)C1O (centres undefined) |  | > 100 µM |  | > 100 |  | > 100 |  | > 100 |  | > 100 |  | > 100 |  | > 100 µM |  | > 100 µM |  | > 100 |  | > 100 µM
O=C1CN2CCC1C/C2=C\c1ccnc2c(Cl)cccc12 (centres undefined) | > 100 µM | > 100 µM | 45 µM | > 100 | > 100 | > 100 | 42.5 | > 100 | 42.6 | > 100 | > 100 µM | > 100 | > 100 µM | > 100 µM | 67.4 µM | > 100 µM | > 100 | > 100 | > 100 µM | > 100 µM

Reference: PubChem BioAssay (NCI)
